# Test results as given in US10479780B2, “Aminopyrazole derivatives” (Chugai Seiyaku Kabushiki Kaisha, priority 2015, dated 2019).
# Tests used:
# Type in all cases: biochemical
# human Lck enzyme = molecular target: T1, human Lck enzyme (Homo sapiens, UniProt P06239); test: Lck enzyme inhibitory activity (time-resolved fluorometry, biotinylated peptide phosphorylation); conditions: read-out: LCK_IC50
# T1 construct: purchased Carna Biosciences, Inc. 08-170
# In short: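 Readout pairs a europium cryptate-labelled anti-phosphotyrosine antibody with XL665-streptavidin, measured by time-resolved fluorescence. IC50 derived from percent inhibition against untreated controls.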
# human Yes1 enzyme = molecular target: T2, human Yes1 enzyme (Homo sapiens, UniProt P07947); test: Yes1 enzyme inhibitory activity (time-resolved fluorometry, biotinylated peptide phosphorylation); conditions: read-out: YES_IC50
# T2 construct: made in house
# T2 sequence (P07947 whole entry): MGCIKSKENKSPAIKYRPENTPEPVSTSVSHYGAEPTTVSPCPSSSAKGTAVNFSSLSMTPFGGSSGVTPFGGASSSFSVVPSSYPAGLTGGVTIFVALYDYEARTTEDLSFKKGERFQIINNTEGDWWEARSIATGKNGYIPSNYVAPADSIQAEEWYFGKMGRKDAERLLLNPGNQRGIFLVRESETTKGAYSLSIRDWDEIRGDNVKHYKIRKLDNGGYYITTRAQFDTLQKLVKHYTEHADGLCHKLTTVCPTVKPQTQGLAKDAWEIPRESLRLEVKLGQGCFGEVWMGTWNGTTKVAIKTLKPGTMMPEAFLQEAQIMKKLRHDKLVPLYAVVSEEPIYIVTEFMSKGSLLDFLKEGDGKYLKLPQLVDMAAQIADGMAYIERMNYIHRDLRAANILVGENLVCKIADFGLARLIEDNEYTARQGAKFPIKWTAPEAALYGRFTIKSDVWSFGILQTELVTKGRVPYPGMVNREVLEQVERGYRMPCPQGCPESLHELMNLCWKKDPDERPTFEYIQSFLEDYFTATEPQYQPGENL
# In short: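 Inhibition was expressed against a compound-free control to give IC50, using TR-FRET read-out (Eu-cryptate anti-pTyr antibody, streptavidin-XL665).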
# human Src enzyme = molecular target: T3, human Src enzyme (Homo sapiens, UniProt P12931); test: Src enzyme inhibitory activity (time-resolved fluorometry, biotinylated peptide phosphorylation); conditions: read-out: SRC_IC50
# T3 construct: purchased Carna Biosciences, Inc. 08-173
# T3 sequence (P12931 whole entry): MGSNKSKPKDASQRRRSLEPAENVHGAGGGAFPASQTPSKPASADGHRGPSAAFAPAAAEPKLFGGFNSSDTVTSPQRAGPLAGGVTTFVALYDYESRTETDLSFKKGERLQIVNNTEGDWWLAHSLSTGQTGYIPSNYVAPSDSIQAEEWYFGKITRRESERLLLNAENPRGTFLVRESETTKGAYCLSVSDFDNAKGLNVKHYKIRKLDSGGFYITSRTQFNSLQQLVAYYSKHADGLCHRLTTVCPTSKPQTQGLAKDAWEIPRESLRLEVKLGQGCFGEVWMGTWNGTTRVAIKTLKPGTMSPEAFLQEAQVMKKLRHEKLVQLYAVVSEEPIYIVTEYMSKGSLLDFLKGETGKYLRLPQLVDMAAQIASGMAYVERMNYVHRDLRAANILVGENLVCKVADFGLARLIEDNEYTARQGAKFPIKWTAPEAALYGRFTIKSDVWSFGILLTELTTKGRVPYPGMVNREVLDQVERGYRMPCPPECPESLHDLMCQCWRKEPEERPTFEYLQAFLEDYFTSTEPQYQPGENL
# In short: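 Compounds were tested for blocking tyrosine phosphorylation of a biotinylated peptide substrate by recombinant human Src. Phosphorylated product was quantified by time-resolved fluorometry using europium cryptate and XL665 conjugates, and IC50 was calculated against the compound-free control.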
# T1 sequence (P06239 whole entry): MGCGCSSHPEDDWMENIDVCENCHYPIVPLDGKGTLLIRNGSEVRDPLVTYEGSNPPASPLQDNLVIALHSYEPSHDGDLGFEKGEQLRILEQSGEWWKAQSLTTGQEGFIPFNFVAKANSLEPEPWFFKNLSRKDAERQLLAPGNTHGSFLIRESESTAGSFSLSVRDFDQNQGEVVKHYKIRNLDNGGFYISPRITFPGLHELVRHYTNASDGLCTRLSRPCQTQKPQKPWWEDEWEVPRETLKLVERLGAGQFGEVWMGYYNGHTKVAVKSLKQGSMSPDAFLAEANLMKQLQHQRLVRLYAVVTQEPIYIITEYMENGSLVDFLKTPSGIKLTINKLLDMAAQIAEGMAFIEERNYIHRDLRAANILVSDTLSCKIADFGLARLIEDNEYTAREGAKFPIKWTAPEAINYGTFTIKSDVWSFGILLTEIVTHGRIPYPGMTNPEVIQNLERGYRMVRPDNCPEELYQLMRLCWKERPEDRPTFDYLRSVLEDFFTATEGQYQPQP
IC50 (human Lck enzyme),IC50 (human Yes1 enzyme),IC50 (human Src enzyme),Structure (SMILES)
4.6 nM,0.39 nM,30 nM,"COc1cc2cc(C(=O)c3cnn(-c4ccc(Oc5ccccc5F)cc4C)c3N)[nH]c2cc1NS(=O)(=O)CC(=O)N1CCCC1 [Example 5-1-122, N-[2-[5-amino-1-[4-(2-fluorophenoxy)-2-methylphenyl]pyrazole-4-carbonyl]-5-methoxy-1H-indol-6-yl]-2-oxo-2-pyrrolidin-1-ylethanesulfonamide]"
33 nM,2 nM,91 nM,"Cc1cc2cc(C(=O)c3cnn(-c4cnc(Oc5ccccc5F)cc4C)c3N)[nH]c2cc1C1CCN(S(=O)(=O)C2CC2)CC1 [Example 5-1-123, [5-amino-1-[6-(2-fluorophenoxy)-4-methylpyridin-3-yl]pyrazol-4-yl]-[6-(1-cyclopropylsulfonylpiperidin-4-yl)-5-methyl-1H-indol-2-yl]methanone]"
10 nM,0.99 nM,70 nM,"Cc1cc(Oc2ccccc2F)ccc1-n1ncc(C(=O)c2cc3cc(N4CCOCC4)c(N4CCC(N5CCOCC5)CC4)cc3[nH]2)c1N [Example 5-1-124, [5-amino-1-[4-(2-fluorophenoxy)-2-methylphenyl]pyrazol-4-yl]-[5-morpholin-4-yl-6-(4-morpholin-4-ylpiperidin-1-yl)-1H-indol-2-yl]methanone]"
9.2 nM,0.71 nM,33 nM,"Cc1cc(Oc2ccccc2F)ccc1-n1ncc(C(=O)c2cc3cc(F)c(N4CCN(S(C)(=O)=O)CC4)cc3[nH]2)c1N [Example 5-1-125, [5-amino-1-[4-(2-fluorophenoxy)-2-methylphenyl]pyrazol-4-yl]-[5-fluoro-6-(4-methylsulfonylpiperazin-1-yl)-1H-indol-2-yl] methanone]"
15 nM,0.87 nM,64 nM,"Cc1cc(Oc2ccccc2F)ccc1-n1ncc(C(=O)c2cc3cc(F)c(N4C(=O)C(C)(C)NC4=S)cc3[nH]2)c1N [Example 5-1-126, 3-[2-[5-amino-1-[4-(2-fluorophenoxy)-2-methylphenyl]pyrazole-4-carbonyl]-5-fluoro-1H-indol-6-yl]-5,5-dimethyl-2-sulfanylideneimidazolidin-4-one]"
4 nM,0.67 nM,39 nM,"Cc1cc(Oc2ccccc2F)ccc1-n1ncc(C(=O)c2cc3cc(F)c(N4C(=O)NC(C)(C)C4=O)cc3[nH]2)c1N [Example 5-1-127, 3-[2-[5-amino-1-[4-(2-fluorophenoxy)-2-methylphenyl]pyrazole-4-carbonyl]-5-fluoro-1H-indol-6-yl]-5,5-dimethylimidazolidine-2,4-dione]"
3.8 nM,0.75 nM,23 nM,"Cc1cc(Oc2ccccc2F)ccc1-n1ncc(C(=O)c2cc3cc(F)c(N4CCC(N5CCOCC5)CC4)cc3[nH]2)c1N [Example 5-1-128, [5-amino-1-[4-(2-fluorophenoxy)-2-methylphenyl]pyrazol-4-yl]-[5-fluoro-6-(4-morpholin-4-ylpiperidin-1-yl)-1H-indol-2-yl] methanone]"
4.6 nM,0.61 nM,7.3 nM,"Cc1cc(Oc2ccccc2F)ccc1-n1ncc(C(=O)c2cc3cc(N4CCOCC4)c(NC4CCN(S(C)(=O)=O)CC4)cc3[nH]2)c1N [Example 5-1-129, [5-amino-1-[4-(2-fluorophenoxy)-2-methylphenyl]pyrazol-4-yl]-[6-[(1-methylsulfonylpiperidin-4-yl)amino]-5-morpholin-4-yl-1H-indol-2-yl]methanone]"
3.8 nM,0.56 nM,13 nM,"COc1cc2cc(C(=O)c3cnn(-c4c(C)cc(Oc5ccccc5F)cc4F)c3N)[nH]c2cc1NS(=O)(=O)CC(=O)N1CCCC1 [Example 5-1-130, N-[2-[5-amino-1-[2-fluoro-4-(2-fluorophenoxy)-6-methylphenyl]pyrazole-4-carbonyl]-5-methoxy-1H-indol-6-yl]-2-oxo-2-pyrrolidin-1-ylethanesulfonamide]"

# The remaining lines, values behind:
Structure (SMILES),IC50 (human Lck enzyme),IC50 (human Yes1 enzyme),IC50 (human Src enzyme)
"Cc1cc2cc(C(=O)c3cnn(-c4ccc(Oc5ccccc5)cc4C)c3N)[nH]c2cc1NS(C)(=O)=O [Example 5-1-108, N-[2-[5-amino-1-(2-methyl-4-phenoxyphenyl)pyrazole-4-carbonyl]-5-methyl-1H-indol-6-yl] methanesulfonamide]",1.7 nM,0.57 nM,21 nM
"Cc1cc2cc(C(=O)c3cnn(-c4cnc(Oc5ccccc5)cc4C)c3N)[nH]c2cc1NS(C)(=O)=O [Example 5-1-109, N-[2-[5-amino-1-(4-methyl-6-phenoxypyridin-3-yl)pyrazole-4-carbonyl]-5-methyl-1H-indol-6-yl]methanesulfonamide]",1.4 nM,0.7 nM,37 nM
"Cc1cc2cc(C(=O)c3cnn(-c4c(C)cc(Oc5ccccc5F)cc4F)c3N)[nH]c2cc1NS(=O)(=O)CC(=O)N1CCCC1 [Example 5-1-110, N-[2-[5-amino-1-[2-fluoro-4-(2-fluorophenoxy)-6-methylphenyl]pyrazole-4-carbonyl]-5-methyl-1H-indol-6-yl]-2-oxo-2-pyrrolidin-1-ylethanesulfonamide]",10 nM,7.7 nM,68 nM
"Cc1cc2cc(C(=O)c3cnn(-c4c(C)cc(Oc5ccccc5F)cc4F)c3N)[nH]c2cc1C1CCN(S(C)(=O)=O)CC1 [Example 5-1-111, [5-amino-1-[2-fluoro-4-(2-fluorophenoxy)-6-methylphenyl]pyrazol-4-yl]-[5-methyl-6-(1-methylsulfonylpiperidin-4-yl)-1H-indol-2-yl] methanone]",14 nM,14 nM,46 nM
"Cc1cc(Oc2c(F)cccc2F)ncc1-n1ncc(C(=O)c2cc3cc(F)c(N4CCC(N5CCOCC5)CC4)cc3[nH]2)c1N [Example 5-1-112, [5-amino-1-[6-(2,6-difluorophenoxy)-4-methylpyridin-3-yl]pyrazol-4-yl]-[5-fluoro-6-(4-morpholin-4-ylpiperidin-1-yl)-1H-indol-2-yl] methanone]",1.7 nM,0.81 nM,26 nM
"Cc1cc(Oc2c(F)cccc2F)ncc1-n1ncc(C(=O)c2cc3cc(F)c(NC4CCN(S(C)(=O)=O)CC4)cc3[nH]2)c1N [Example 5-1-113, [5-amino-1-[6-(2,6-difluorophenoxy)-4-methylpyridin-3-yl]pyrazol-4-yl]-[5-fluoro-6-[(1-methylsulfonylpiperidin-4-yl)amino]-1H-indol-2-yl]methanone]",3.3 nM,3.9 nM,41 nM
"Cc1cc(Oc2c(F)cccc2F)ncc1-n1ncc(C(=O)c2cc3cc(F)c(N4C(=O)NC(C)(C)C4=O)cc3[nH]2)c1N [Example 5-1-114, 3-[2-[5-amino-1-[6-(2,6-difluorophenoxy)-4-methylpyridin-3-yl]pyrazole-4-carbonyl]-5-fluoro-1H-indol-6-yl]-5,5-dimethylimidazolidine-2,4-dione]",1.1 nM,1.7 nM,41 nM
"Cc1cc(Oc2c(F)cccc2F)ncc1-n1ncc(C(=O)c2cc3cc(F)c(N4C(=O)C(C)(C)NC4=S)cc3[nH]2)c1N [Example 5-1-115, 3-[2-[5-amino-1-[6-(2,6-difluorophenoxy)-4-methylpyridin-3-yl]pyrazole-4-carbonyl]-5-fluoro-1H-indol-6-yl]-5,5-dimethyl-2-sulfanylideneimidazolidin-4-one]",7 nM,2.3 nM,52 nM
"Cc1cc(Oc2ccccc2F)ccc1-n1ncc(C(=O)c2cc3cc(N4CCOCC4)c(-n4c(C)cc(=O)[nH]c4=O)cc3[nH]2)c1N [Example 5-1-116, 1-[2-[5-amino-1-[4-(2-fluorophenoxy)-2-methylphenyl]pyrazole-4-carbonyl]-5-morpholin-4-yl-1H-indol-6-yl]-6-methylpyrimidine-2,4-dione]",1.6 nM,0.51 nM,5.2 nM
"Cc1cc(Oc2ccccc2F)ccc1-n1ncc(C(=O)c2cc3cc(N4CCOCC4)c(N4C(=O)NC(C)(C)C4=O)cc3[nH]2)c1N [Example 5-1-117, 3-[2-[5-amino-1-[4-(2-fluorophenoxy)-2-methylphenyl]pyrazole-4-carbonyl]-5-morpholin-4-yl-1H-indol-6-yl]-5,5-dimethylimidazolidine-2,4-dione]",1.3 nM,0.48 nM,5 nM
Cc1cc(Oc2ccccc2F)ccc1-n1ncc(C(=O)c2cc3cc(F)c(NC4CN(S(C)(=O)=O)C4)cc3[nH]2)c1N [Example 5-1-118],2.7 nM,0.85 nM,11 nM
"Cc1cc(Oc2ccccc2F)ccc1-n1ncc(C(=O)c2cc3cc(F)c(N4CCOCC4)cc3[nH]2)c1N [Example 5-1-119, [5-amino-1-[4-(2-fluorophenoxy)-2-methylphenyl]pyrazol-4-yl]-(5-fluoro-6-morpholin-4-yl-1H-indol-2-yl)methanone]",4.8 nM,1.8 nM,15 nM
"Cc1cc(Oc2ccccc2F)ccc1-n1ncc(C(=O)c2cc3cc(N4CCOCC4)c(N4C(=O)C(C)(C)NC4=S)cc3[nH]2)c1N [Example 5-1-120, 3-[2-[5-amino-1-[4-(2-fluorophenoxy)-2-methylphenyl]pyrazole-4-carbonyl]-5-morpholin-4-yl-1H-indol-6-yl]-5,5-dimethyl-2-sulfanylideneimidazolidin-4-one]",6.1 nM,0.43 nM,23 nM
"Cc1cc2cc(C(=O)c3cnn(-c4cnc(Oc5ccccc5F)cc4C)c3N)[nH]c2cc1NS(=O)(=O)CC(=O)N1CCCC1 [Example 5-1-121, N-[2-[5-amino-1-[6-(2-fluorophenoxy)-4-methylpyridin-3-yl]pyrazole-4-carbonyl]-5-methyl-1H-indol-6-yl]-2-oxo-2-pyrrolidin-1-ylethanesulfonamide]",14 nM,1.7 nM,90 nM
